Results published in paper PMC9126943, “ADAMTS4-specific MR probe to assess aortic aneurysms in vivo using synthetic peptide libraries” (Nature Communications, 2022).
Values joined by “and” are separate entries in the source; they are usually repeats but may differ in a detail not shown here. Equal entries are not always repeated. Where a SMILES comes first, the peptide text is derived from it. Bridges are numbered along the chain shown (N, C = ends). The star is where a group is joined. DOTA = O=C(O)CN1CCN(CC(=O)O)CCN(CC(=O)*)CCN(CC(=O)O)CC1

Biological target: T1, ADAMTS4 in the aneurysmal aortic wall of ApoE−/− mice (Mus musculus, UniProt Q8BNJ2)
T1 construct: from tissue
T1 sequence (Q8BNJ2 209-833): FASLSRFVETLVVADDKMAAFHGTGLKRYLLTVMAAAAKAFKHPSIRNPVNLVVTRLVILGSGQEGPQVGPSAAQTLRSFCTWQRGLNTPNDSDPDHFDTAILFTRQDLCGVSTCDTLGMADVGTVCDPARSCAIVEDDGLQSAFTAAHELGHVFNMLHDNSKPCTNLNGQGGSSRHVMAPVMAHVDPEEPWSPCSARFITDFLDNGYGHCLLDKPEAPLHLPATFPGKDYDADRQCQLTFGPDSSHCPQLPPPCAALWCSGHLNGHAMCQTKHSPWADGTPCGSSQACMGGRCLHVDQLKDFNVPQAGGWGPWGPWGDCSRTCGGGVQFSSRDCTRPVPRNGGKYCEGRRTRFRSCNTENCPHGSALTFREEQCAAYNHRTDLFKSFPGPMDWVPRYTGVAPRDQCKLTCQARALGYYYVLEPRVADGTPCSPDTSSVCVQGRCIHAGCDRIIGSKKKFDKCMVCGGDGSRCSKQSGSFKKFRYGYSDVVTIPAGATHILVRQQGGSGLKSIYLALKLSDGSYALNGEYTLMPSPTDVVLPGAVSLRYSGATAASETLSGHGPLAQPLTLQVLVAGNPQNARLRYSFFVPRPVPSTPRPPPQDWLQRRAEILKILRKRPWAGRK
Assay: In vivo competition experiment
Description: An in vivo competition experiment was performed in 3 ApoE^−/− mice (n = 3) 4 weeks after AAA induction. On day 1, MR imaging was performed prior to and following the intravenous administration of the ADAMTS4-specific probe. On day 2, MRI was performed prior to and after the injection of a 7-fold higher dose of the non-paramagnetic europium-labeled ADAMTS4-specific probe. Then, a clinical dose of the ADAMST4 specific probe (0.13 mmol/kg) was administered with the following imaging after 20 min.
Analysis of resulting MR images was performed using OsiriX (version 7.1, OsiriX Foundation, Bernex, Switzerland). All morphometric measurements were conducted on high-resolution MRI images. In order to assess the signal intensities, regions of interest (ROIs) were measured as areas of signal enhancement, which were co-localized with areas of aneurysmal-aortic tissue. For these areas, the CNR was calculated using the following formula: CNR = (Combined vessel-wall and aneurysmal-aortic-tissue-signal − blood-signal)/standard-deviation-signal (noise). The signal of noise was defined as the standard deviation in pixel intensity from an ROI placed in the background air anterior to the aorta.

N=C(N)NCCC[C@@H]1NC(=O)[C@H](CCCNC(=N)N)NC(=O)[C@H](CO)NC(=O)[C@@H](N)CSSC[C@@H](C(=O)N[C@@H](CO)C(=O)NCC(=O)NCC(=O)N[C@@H](CO)C(=O)NCC(=O)NCC(=O)N[C@@H](CCCCNC(=O)CN2CCN(CC(=O)O)CCN(CC(=O)O)CCN(CC(=O)O)CC2)C(=O)NCC(N)=O)NC(=O)CNC1=O (Gd complex, metal not drawn) [ADAMTS4-specific probe] (H-CSRRGCSGGSGGK(DOTA)G-NH2; disulfide 1-6)
CNR d1 post, individual animals (day 1, Gd-labeled probe alone): 10.05 and 8.83 and 9.84
CNR d2 post, individual animals (day 2, after 7-fold dose of Eu-labeled probe followed by Gd-labeled probe 0.13 mmol/kg): 5.81 and 4.92 and 5.19
